According to patent publication US5723439A (priority 1991, dated 1998):

Tested on: influenza A/Aichi/2/68 (H3N2) virus
Assay type: in vivo, mice
Conditions: intraperitoneal 15,000 KIU/mouse/day, 5-6 injections daily for 7 days

aprotinin was tested, and the “protective effect (survival)” value was 30%.
